From the NIST ThermoML archive (doi:10.1021/je060271a)
Numbers after ± are expanded uncertainties.

Conditions: 283.15 K, Liquid, Vibrating tube method

CCCCC(=O)OCC(COC(=O)CCCC)(COC(=O)CCCC)COC(=O)CCCC [pentaerythritol tetrapentanoate]
mass density (735.2 kPa): 1027.6 ± 1.2 kg/m3 | mass density (767.3 kPa): 1027.5 ± 1.2 kg/m3 | mass density (795.3 kPa): 1027.5 ± 1.2 kg/m3 | mass density (819.4 kPa): 1027.5 ± 1.2 kg/m3 | mass density (839.6 kPa): 1027.6 ± 1.2 kg/m3 | mass density (865.5 kPa): 1027.6 ± 1.2 kg/m3 | mass density (888.6 kPa): 1027.5 ± 1.2 kg/m3 | mass density (912.5 kPa): 1027.6 ± 1.2 kg/m3 | mass density (938.4 kPa): 1027.7 ± 1.2 kg/m3 | mass density (969.9 kPa): 1027.6 ± 1.2 kg/m3 | mass density (997.3 kPa): 1027.6 ± 1.2 kg/m3 | mass density (1027 kPa): 1027.7 ± 1.2 kg/m3 | mass density (1064.4 kPa): 1027.7 ± 1.2 kg/m3 | mass density (1096.7 kPa): 1027.7 ± 1.2 kg/m3 | mass density (1131.3 kPa): 1027.7 ± 1.2 kg/m3 | mass density (1175 kPa): 1027.7 ± 1.2 kg/m3 | mass density (1212.2 kPa): 1027.8 ± 1.2 kg/m3 | mass density (1243.1 kPa): 1027.7 ± 1.2 kg/m3 | mass density (1258.2 kPa): 1027.8 ± 1.2 kg/m3 | mass density (1275 kPa): 1027.8 ± 1.2 kg/m3 | mass density (1289.5 kPa): 1027.7 ± 1.2 kg/m3 | mass density (1304.2 kPa): 1027.8 ± 1.2 kg/m3 | mass density (1321.8 kPa): 1027.8 ± 1.2 kg/m3 | mass density (1336.7 kPa): 1027.8 ± 1.2 kg/m3 | mass density (1351.8 kPa): 1027.9 ± 1.2 kg/m3 | mass density (1371.1 kPa): 1027.9 ± 1.2 kg/m3 | mass density (1421.6 kPa): 1027.8 ± 1.2 kg/m3 | mass density (1442.1 kPa): 1027.9 ± 1.2 kg/m3 | mass density (1459.8 kPa): 1027.9 ± 1.2 kg/m3 | mass density (1477.5 kPa): 1027.9 ± 1.2 kg/m3 | mass density (1499.7 kPa): 1027.9 ± 1.2 kg/m3 | mass density (1518.7 kPa): 1027.9 ± 1.2 kg/m3 | mass density (1561.4 kPa): 1027.9 ± 1.2 kg/m3 | mass density (1627.3 kPa): 1028.1 ± 1.2 kg/m3 | mass density (1648.9 kPa): 1028.1 ± 1.2 kg/m3 | mass density (1671.6 kPa): 1028 ± 1.2 kg/m3 | mass density (1695.7 kPa): 1028 ± 1.2 kg/m3 | mass density (1719.2 kPa): 1028.1 ± 1.2 kg/m3 | mass density (1748.3 kPa): 1028.1 ± 1.2 kg/m3 | mass density (1772.8 kPa): 1028 ± 1.2 kg/m3 | mass density (1798.3 kPa): 1028 ± 1.2 kg/m3 | mass density (1824.2 kPa): 1028.1 ± 1.2 kg/m3 | mass density (1856.3 kPa): 1028.2 ± 1.2 kg/m3 | mass density (1883 kPa): 1028.2 ± 1.2 kg/m3 | mass density (1911.7 kPa): 1028.1 ± 1.2 kg/m3 | mass density (1940.6 kPa): 1028.2 ± 1.2 kg/m3 | mass density (1976.1 kPa): 1028.2 ± 1.2 kg/m3 | mass density (2006.6 kPa): 1028.2 ± 1.2 kg/m3 | mass density (2039.2 kPa): 1028.3 ± 1.2 kg/m3 | mass density (2073.9 kPa): 1028.3 ± 1.2 kg/m3 | mass density (2114 kPa): 1028.3 ± 1.2 kg/m3 | mass density (2165.9 kPa): 1028.3 ± 1.2 kg/m3 | mass density (2243 kPa): 1028.4 ± 1.2 kg/m3 | mass density (2290.5 kPa): 1028.4 ± 1.2 kg/m3 | mass density (2304.2 kPa): 1028.4 ± 1.2 kg/m3 | mass density (2315.5 kPa): 1028.5 ± 1.2 kg/m3 | mass density (2325.4 kPa): 1028.5 ± 1.2 kg/m3 | mass density (2335.1 kPa): 1028.5 ± 1.2 kg/m3 | mass density (2345 kPa): 1028.4 ± 1.2 kg/m3 | mass density (2356.8 kPa): 1028.4 ± 1.2 kg/m3 | mass density (2367 kPa): 1028.5 ± 1.2 kg/m3 | mass density (2376.9 kPa): 1028.5 ± 1.2 kg/m3 | mass density (2387.1 kPa): 1028.5 ± 1.2 kg/m3 | mass density (2399.6 kPa): 1028.4 ± 1.2 kg/m3 | mass density (2409.9 kPa): 1028.5 ± 1.2 kg/m3 | mass density (2419.9 kPa): 1028.6 ± 1.2 kg/m3 | mass density (2432.6 kPa): 1028.5 ± 1.2 kg/m3 | mass density (2443.2 kPa): 1028.4 ± 1.2 kg/m3 | mass density (2453.4 kPa): 1028.5 ± 1.2 kg/m3 | mass density (2464 kPa): 1028.6 ± 1.2 kg/m3 | mass density (2476.8 kPa): 1028.5 ± 1.2 kg/m3 | mass density (2487.6 kPa): 1028.7 ± 1.2 kg/m3 | mass density (2498.3 kPa): 1028.4 ± 1.2 kg/m3 | mass density (2511.9 kPa): 1028.5 ± 1.2 kg/m3 | mass density (2523 kPa): 1028.4 ± 1.2 kg/m3 | mass density (2534.1 kPa): 1028.6 ± 1.2 kg/m3 | mass density (2545.9 kPa): 1028.6 ± 1.2 kg/m3 | mass density (2559.4 kPa): 1028.6 ± 1.2 kg/m3 | mass density (2570.3 kPa): 1028.6 ± 1.2 kg/m3 | mass density (2581.9 kPa): 1028.6 ± 1.2 kg/m3
